For experiment [1], the system named is GPR81 receptor / intracellular cAMP levels in astrocytes. Nature of the experiment: FRET measurements of cAMP in living primary astrocytes transfected with AKAR2. It counts as cell-based, rat.
Description: Astrocytes expressing Epac1-camps or AKAR2 FRET construct were examined with a Plan NeoFluoar 40×/1.3 Oil DIC immersion objective (Carl Zeiss, Jena, Germany) and 2-fold zoom factor using Zeiss LSM510 META confocal microscope (Carl Zeiss, Jena, Germany). Cells were excited at 458 nm and images (512×512) were acquired every 3.5 s or 7 s using Lambda stack acquisition. Emission spectra were collected from META detector in eight channels (lambda stack) ranging from 470 nm to 545 nm, each with a 10.7-nm width. Two-channel (CFP and YFP) images were generated from lambda stacks by analytical software “Extract channels”. […] YFP and CFP fluorescence intensities were quantified within a region of interest selected for individual cell expressing Epac1-camps or AKAR2 using LSM 510 META software. In the graphs, FRET signal is reported as the ratio of YFP to CFP fluorescence signal after subtracting the background fluorescence from both YFP and CFP signals using Sigma Plot. […]
The changes in YFP/CFP fluorescence emission ratio were normalized to baseline ratio values. Single-exponential (F=F0+c×exp (−t/τ)) decay functions or single-exponential rise to maximum functions (F=F0+c×(1−exp(−t/τ))) were fitted to the diagrams with YFP/CFP fluorescence emission ratios using SigmaPlot. The time-constant (τ) and YFP/CFP emission ratio amplitudes (c) were determined from the fitted curves. […]
Experiment [2] relates to astrocytes. The experiment in a line: Exocytotic fusion events of Alexa Fluor 546 dextran-labeled vesicles in cultured astrocytes. It counts as cell-based. The note with it: for number of ATP triggered fusion events per cell: 1 mM ATP + 1 μM ADR or 10 μM Iso. Here is the method: Time-lapse confocal images were obtained every 2 s for 10 min with the inverted Zeiss LSM780 and Zeiss LSM510 META confocal microscopes with oil-immersion plan apochromatic objective (63×, 1.4 NA) and 543-nm He—Ne laser excitation. […] Cells were scanned by eye for an individual exocytotic event by rapidly replaying the movie in forward and reverse directions. The onset of exocytosis was defined as the first frame showing a significant decrease in Alexa Fluor^546-dextran. A circular region of interest was centered on the spot where the event occurred, and changes in the fluorescence intensities of Alexa Fluor^546-dextran were monitored over time.

For experiment [3], the system named is astrocytes. The note with it: within an hour. The text has this: (§1) LSM 510 Meta software was used to measure cell area and perimeter of isolated Epac1-camps positive astrocytes before and after treatment of cell with different reagents.
The subject of experiment [4] is intracellular cAMP levels in astrocytes. Nature of the experiment: FRET measurements of cAMP in living primary astrocytes transfected with Epac1-camps. The following applies: for effect on ADR triggered FRET response: 1 μM ADR.
Description: Astrocytes expressing Epac1-camps or AKAR2 FRET construct were examined with a Plan NeoFluoar 40×/1.3 Oil DIC immersion objective (Carl Zeiss, Jena, Germany) and 2-fold zoom factor using Zeiss LSM510 META confocal microscope (Carl Zeiss, Jena, Germany). Cells were excited at 458 nm and images (512×512) were acquired every 3.5 s or 7 s using Lambda stack acquisition. Emission spectra were collected from META detector in eight channels (lambda stack) ranging from 470 nm to 545 nm, each with a 10.7-nm width. Two-channel (CFP and YFP) images were generated from lambda stacks by analytical software “Extract channels”. Channels with emission spectra 470- and 481-nm and emission spectra 513-, 524-, and 534-nm were extracted to CFP channel and YFP channel, respectively. YFP and CFP fluorescence intensities were quantified within a region of interest selected for individual cell expressing Epac1-camps or AKAR2 using LSM 510 META software. In the graphs, FRET signal is reported as the ratio of YFP to CFP fluorescence signal after subtracting the background fluorescence from both YFP and CFP signals using Sigma Plot. The values of FRET signals were normalized (set to 1.0) at the onset of the experiments. The decrease in FRET signals reflects an increase in [cAMP]i.
500 μM 3-Chloro-5-hydroxybenzoic acid (3-Cl-5-HBA; GPR81 receptor exogenous agonist).
The changes in YFP/CFP fluorescence emission ratio were normalized to baseline ratio values. Single-exponential (F=F0+c×exp (−t/τ)) decay functions or single-exponential rise to maximum functions (F=F0+c×(1−exp(−t/τ))) were fitted to the diagrams with YFP/CFP fluorescence emission ratios using SigmaPlot. The time-constant (τ) and YFP/CFP emission ratio amplitudes (c) were determined from the fitted curves. F is YFP/CFP emission ratio at time t, F0 is baseline YFP/CFP emission ratio, c is YFP/CFP emission ratio amplitude of F(t=0)−F0, and τ is the time constant of individual exponential component.
Experiment [5] has as its system [Ca2+]i in astrocytes. The experiment in a line: Fluo-4 AM measurements of [Ca2+]i in cultured astrocytes. It counts as cell-based. The following applies: for effect on hypotonicity-elicited periodic elevations in [Ca2+]i: 1 μM ADR or 10 μM Iso applied after hypotonic medium; for intracellular calcium levels on simultaneous treatment with hypotonic medium: 1 μM ADR or 10 μM Iso with hypotonic medium; for effect on ATP-induced elevation in cytosolic calcium levels: 1 mM ATP + 1 μM ADR or 10 μM Iso; for oscillations in intracellular calcium levels: agent alone: 1 μM ADR; for oscillations in intracellular calcium levels / intracellular Ca2+ levels (F/F0) within first 100 s after stimulation: 10 μM Iso; for intracellular Ca2+ levels (F/F0) within first 100 s after stimulation: agent alone: 1 mM ATP. The procedure: Live astrocytes were incubated for 30 min at room temperature in medium containing 2 μM of fluorescent dye Fluo-4 AM (Molecular Probes, Invitrogen, Eugene, Oreg., USA). Astrocytes were then transferred to dye-free standard saline solution for at least 30 min before experimentation to allow for cleavage of the AM ester group. Time lapse images were obtained every 3.5 s for up to 10 min with the inverted Zeiss LSM780 confocal microscope with oil-immersion plan apochromatic objective (63×, 1.4 NA) and 488-nm Ar-Ion laser excitation. Emission light was acquired with a 505-530-nm bandpass emission filter. […] Average fluorescence intensity before stimulation of each cell was subtracted from intensities after stimulation (ΔF). Average fluorescence intensity changes normalized to baseline fluorescence intensity (F/F0) were determined for the first 100 s after stimulation.

Experiment [6] relates to astrocytes. The experiment in a line: Hypotonically induced cell swelling (cell surface area) of astrocytes. It counts as cell-based. The following applies: pretreated cells, hypotonic medium ~60% of control osmolarity.
Description: as §1

“Also recorded” adds a separate entry of the source. Like-named read-outs stand apart in the source and are kept apart here.

As to `O=C(O)c1cc(O)cc(Cl)c1` [3-Cl-5-HBA], the “intracellular cAMP levels (AKAR2 YFP/CFP ratio; uprise = cAMP increase)” value in experiment [1] (500 μM 3-Cl-5-HBA) is on record as “increase in intracellular cAMP levels”.

Regarding `CNCC(O)c1ccc(O)c(O)c1` (stereo not shown) [ADR, adrenaline], in experiment [2], the “number of ATP triggered fusion events per cell” value was “reduce the number of exocytotic fusion events; also recorded: diminished”. Besides, in experiment [3], the “decrease in cell area” value is 5-10% and the “increase in cell perimeter” value was 30-50%. In addition, the “increase in FRET response to hypotonic medium (decrease in cAMP)” value in experiment [4] (ADR pre-treated cells, hypotonic medium) is “reversible and slowly declined to the baseline”. Further, the EC50 in experiment [4] (Rattus norvegicus, Astrocyte, read-out: concentration of ADR at which 50% of maximum cAMP increase was observed (EC50), maximum YFP/CFP ratio response, Epac1-camps, dose-response) is approximately 0.03 µM. Moreover, the EC50 in experiment [4] (read-out: concentration of ADR at which 50% of maximum cAMP increase was observed (EC50), maximum YFP/CFP ratio response, Epac1-camps, dose-response) amounted to 0.029 ± 0.0001 µM. In experiment [5] (1 μM ADR), the “frequency of calcium oscillations compared with hypotonic medium-stimulated cells” value is “more frequent” and the “intracellular Ca2+ levels (F/F0) within first 100 s after stimulation” value (“intracellular Ca2+ levels” for short) is listed as “increased”. For the same molecule, in experiment [5], the “effect on hypotonicity-elicited periodic elevations in [Ca2+]i” value is listed as “attenuated; also recorded: ceased”; the “intracellular calcium levels on simultaneous treatment with hypotonic medium” value is “transient increase in intracellular calcium levels, which was followed by a decline to basal levels”; the “effect on ATP-induced elevation in cytosolic calcium levels” value is reported as “diminishes the elevation in cytosolic calcium levels”; the “oscillations in intracellular calcium levels” value is listed as “induced oscillations in intracellular calcium levels”. In addition, the “hypotonically induced cell swelling (increase in cell surface area)” value in experiment [6] was “reduces hypotonically induced cell swelling; also recorded: reduced”.

On to `Nc1ncnc2c1ncn2[C@@H]1O[C@H](COP(=O)(O)OP(=O)(O)OP(=O)(O)O)[C@@H](O)[C@H]1O` [ATP, adenosine-5′-triphosphate], for which the “exocytotic fusion release events” value in experiment [2] (1 mM ATP) is “triggered exocytotic fusion release events”. Also, the “intracellular Ca2+ levels” value in experiment [5] (1 μM ADR) was “increased”.

Consider `C[C@H]1O[C@@H](n2cnc3c(N)ncnc32)C[C@@H]1O` [DDA, 2′,5′-dideoxiadenosine], for which the “effect on ADR triggered FRET response” value in experiment [4] (100 μM DDA) is “slower decay kinetics”.

As for `CC(C)Cn1c(=O)n(C)c(=O)c2[nH]cnc21` [IBMX], in experiment [4] (200 μM IBMX with 50 μM FSK), the “effect on Epac1-camps response to FSK” value is on record as “increased Epac1-camps response to AC activator FSK”.

In the case of `CC(C)NCC(O)c1ccc(O)c(O)c1` (stereo not shown) [Iso, isoprenaline], in experiment [2], the “number of ATP triggered fusion events per cell” value is “diminished”. Besides, in experiment [5], the “effect on hypotonicity-elicited periodic elevations in [Ca2+]i” value was “ceased”; the “intracellular calcium levels on simultaneous treatment with hypotonic medium” value was “transient increase in intracellular calcium levels, which was followed by a decline to basal levels”; the “effect on ATP-induced elevation in cytosolic calcium levels” value was “diminishes the elevation in cytosolic calcium levels”; the “oscillations in intracellular calcium levels” value is “not”. Moreover, the “intracellular Ca2+ levels” value in experiment [5] (1 μM ADR) is recorded as “no significant difference”. Also, the “hypotonically induced cell swelling (increase in cell surface area)” value in experiment [6] is “reduced”.

With `CC(C)NCC(O)COc1cccc2ccccc12` (stereo not shown) [Pro, propranolol], the “effect on ADR triggered FRET response” value in experiment [4] (1 μM Pro) is given as “completely prevented”.

`C[C@H](O)C(=O)[O-].[Na+]` [lactate, Sodium L-lactate]: the “intracellular cAMP levels (AKAR2 YFP/CFP ratio; uprise = cAMP increase)” value in experiment [1] (20 mM lactate) is listed as “increase in intracellular cAMP levels”. In addition, the “intracellular cAMP levels (Epac1-camps YFP/CFP ratio; decline = cAMP increase)” value in experiment [4] (20 mM lactate) is “increase in intracellular cAMP levels”.

The values are drawn from patent publication US9970924B2, “Mechanism and drug targets for reducing cell edema (neuroprotection) and cytoplasmic excitability in astrocytes in normal and pathological states” (CELICA D.O.O., priority 2013, dated 2018).
